# Laboratory results: patent publication US12661359B2 (Madrigal Pharmaceuticals, Inc., priority 2021, dated 2026)
# Experiments:
# [1] = system: patients with heterozygous familial hypercholesterolemia (HeFH); experiment: Phase 2 trial MGL-3196-06 (NCT03038022) in HeFH patients; type: in vivo, human; details: MGL-3196 100 mg once daily, 12 weeks
# Experimental: A Phase 2 clinical trial was conducted in 116 patients with proven heterozygous familial hypercholesterolemia (HeFH). The primary endpoint was reduction in LDL-C compared with placebo and secondary endpoints included effects on additional lipids and lipoproteins.
# MGL-3196-06 (NCT03038022) was a 12-week multicenter, randomized, double blind, placebo-controlled trial in HeFH patients not at LDL-C target on maximally tolerated statins. Patients received MGL-3196 100 mg or placebo once daily for 12 weeks (in a 2:1 ratio) in addition to their LDL-C lowering regimen.
# human OSTαβ = biological target: T1, human OSTαβ (Homo sapiens, UniProt Q86UW1+Q86UW2); experiment: OSTαβ-mediated transport in transfected MDCK-II cells versus control cells
# T1 sequence (Q86UW1 1-340): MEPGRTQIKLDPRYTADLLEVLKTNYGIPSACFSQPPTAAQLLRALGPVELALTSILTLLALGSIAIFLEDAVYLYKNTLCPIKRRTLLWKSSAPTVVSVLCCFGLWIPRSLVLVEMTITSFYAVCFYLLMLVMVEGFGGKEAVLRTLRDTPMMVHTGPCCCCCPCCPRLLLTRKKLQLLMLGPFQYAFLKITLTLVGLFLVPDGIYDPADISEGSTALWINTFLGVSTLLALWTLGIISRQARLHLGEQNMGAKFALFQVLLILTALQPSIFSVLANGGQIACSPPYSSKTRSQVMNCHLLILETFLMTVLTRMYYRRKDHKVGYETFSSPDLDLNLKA
# T1 sequence (Q86UW2 1-128): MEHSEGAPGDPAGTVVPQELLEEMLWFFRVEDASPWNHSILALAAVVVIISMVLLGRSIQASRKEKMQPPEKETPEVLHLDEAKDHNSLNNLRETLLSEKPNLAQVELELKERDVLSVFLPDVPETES
# Experimental: Transfected cells and control cells are both exposed to the compound, and the concentration of the compound in the transfected cells and the control cells are then measured. An uptake ratio can then be calculated to quantify the difference of the concentration, indicating whether OSTαβ mediates the transport of the compound.
# MGL-3196 was tested as a potential substrate for human OSTαβ-mediated transport.
# [2] = cited from earlier work
# P-gp = P-gp (Homo sapiens, UniProt P08183); experiment: P-gp inhibition; type: in vitro ADME
# Excerpt: (§1) Based on the predicted gut-wall BCRP interaction (R=33.5), there is a possible contribution of gut BCRP inhibition to drug interactions.
# patients with NASH = details: cited from earlier work
# BCRP = biological target: T2, BCRP (Homo sapiens, UniProt Q9UNQ0); experiment: BCRP inhibition and DDI R-value assessment; type: in vitro ADME
# T2 sequence (Q9UNQ0 1-655): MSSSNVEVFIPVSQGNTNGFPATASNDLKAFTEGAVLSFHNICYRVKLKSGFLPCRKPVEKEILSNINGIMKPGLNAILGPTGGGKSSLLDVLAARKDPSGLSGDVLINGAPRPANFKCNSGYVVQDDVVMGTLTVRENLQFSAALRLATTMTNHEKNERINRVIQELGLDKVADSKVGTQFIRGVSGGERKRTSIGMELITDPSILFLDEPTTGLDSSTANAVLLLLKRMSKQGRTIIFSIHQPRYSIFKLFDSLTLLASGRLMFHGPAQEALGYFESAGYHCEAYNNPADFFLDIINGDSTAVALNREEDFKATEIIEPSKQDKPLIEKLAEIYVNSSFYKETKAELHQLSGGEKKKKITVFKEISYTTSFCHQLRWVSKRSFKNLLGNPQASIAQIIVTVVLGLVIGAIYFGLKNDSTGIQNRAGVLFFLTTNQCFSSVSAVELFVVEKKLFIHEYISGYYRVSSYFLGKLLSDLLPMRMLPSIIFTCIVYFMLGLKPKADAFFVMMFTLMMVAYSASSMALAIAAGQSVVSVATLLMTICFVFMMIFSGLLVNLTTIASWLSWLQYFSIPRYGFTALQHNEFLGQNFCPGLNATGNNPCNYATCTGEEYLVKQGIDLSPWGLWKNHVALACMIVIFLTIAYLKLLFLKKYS
# Excerpt: as §1
# [3] = human, in vivo
# clinical = details: human, in vivo; for AUC(0-inf): AUCinf; for AUC(0-t): AUClast
# Chain of P-gp (P08183 whole entry): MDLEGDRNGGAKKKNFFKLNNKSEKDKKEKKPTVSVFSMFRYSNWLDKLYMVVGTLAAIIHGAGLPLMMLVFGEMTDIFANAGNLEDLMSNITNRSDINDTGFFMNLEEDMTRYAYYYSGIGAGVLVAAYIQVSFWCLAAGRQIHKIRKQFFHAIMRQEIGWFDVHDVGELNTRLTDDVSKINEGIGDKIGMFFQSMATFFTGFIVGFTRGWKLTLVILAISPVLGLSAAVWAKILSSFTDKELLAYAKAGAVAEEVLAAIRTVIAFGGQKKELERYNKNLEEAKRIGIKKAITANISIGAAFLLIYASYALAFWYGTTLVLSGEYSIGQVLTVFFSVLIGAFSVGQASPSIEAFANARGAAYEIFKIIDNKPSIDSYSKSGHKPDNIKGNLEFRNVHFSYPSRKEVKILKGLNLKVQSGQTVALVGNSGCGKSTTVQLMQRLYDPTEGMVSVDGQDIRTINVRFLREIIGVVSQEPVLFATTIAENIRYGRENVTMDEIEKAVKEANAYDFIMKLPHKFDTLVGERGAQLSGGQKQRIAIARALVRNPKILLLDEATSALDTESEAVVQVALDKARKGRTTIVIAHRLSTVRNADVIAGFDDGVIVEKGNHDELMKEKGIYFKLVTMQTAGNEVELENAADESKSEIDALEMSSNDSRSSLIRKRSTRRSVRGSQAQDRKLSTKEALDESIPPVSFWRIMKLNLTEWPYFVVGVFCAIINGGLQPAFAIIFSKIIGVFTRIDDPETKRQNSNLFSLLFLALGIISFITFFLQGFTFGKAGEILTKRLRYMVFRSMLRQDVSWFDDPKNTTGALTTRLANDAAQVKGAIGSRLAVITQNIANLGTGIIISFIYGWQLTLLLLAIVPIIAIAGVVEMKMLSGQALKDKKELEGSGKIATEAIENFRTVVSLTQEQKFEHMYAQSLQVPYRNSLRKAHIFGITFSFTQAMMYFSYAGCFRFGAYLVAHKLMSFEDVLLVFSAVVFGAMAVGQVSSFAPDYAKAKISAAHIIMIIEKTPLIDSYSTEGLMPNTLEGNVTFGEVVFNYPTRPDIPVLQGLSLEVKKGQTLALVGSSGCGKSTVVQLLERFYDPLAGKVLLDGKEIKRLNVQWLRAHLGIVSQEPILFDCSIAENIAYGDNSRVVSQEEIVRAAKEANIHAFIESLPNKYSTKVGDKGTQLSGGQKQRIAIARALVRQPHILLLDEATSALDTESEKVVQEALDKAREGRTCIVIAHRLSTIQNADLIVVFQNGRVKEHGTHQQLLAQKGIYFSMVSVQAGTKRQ
smiles,measurement,setting,value
"CC(C)c1cc(Oc2c(Cl)cc(-n3nc(C#N)c(=O)[nH]c3=O)cc2Cl)n[nH]c1=O [MGL-3196, 2-(3,5-dichloro-4-((5-isopropyl-6-oxo-1,6-dihydropyridazin-3-yl)oxy)phenyl)-3,5-dioxo-2,3,4,5-tetrahydro-1,2,4-triazine-6-carbonitrile]",LDL-C and other atherogenic lipids lowering in patients with HeFH,[1]; versus placebo,statistically significantly lowers
same,Apolipoprotein B (ApoB) lowering,"[1]; versus placebo, p<0.0001",−18-29%
same,Apolipoprotein CIII (Apo CIII) lowering,"[1]; versus placebo, p<0.0001",−22%
same,Lipoprotein (a) (Lp(a)) lowering,"[1]; versus placebo, p<0.0001",−26-33%
same,Triglyceride (TG) lowering,"[1]; versus placebo, p<0.0001",−25-31%
same,LDL-C lowering compared to placebo,[1]; prespecified group of patients intolerant of high intensity statin doses,28.5%
same,Substrate for human OSTαβ (conclusion in words),human OSTαβ; MDCK,may be a substrate
same,Accumulation in control cells,"human OSTαβ; dog, MDCK, 1 μM",1.91 ± 0.220 pmol/min/cm^2
same,Accumulation in control cells,"human OSTαβ; dog, MDCK, 10 μM",11.3 ± 0.500 pmol/min/cm^2
same,Accumulation in control cells,"human OSTαβ; dog, MDCK, 100 μM",49.3 ± 6.28 pmol/min/cm^2
same,Accumulation in transporter cells,"human OSTαβ; human, MDCK, 1 μM",2.58 ± 0.103 pmol/min/cm^2
same,Net accumulation,"human OSTαβ; human, MDCK, 1 μM",0.670 ± 0.103 pmol/min/cm^2
same,Accumulation in transporter cells,"human OSTαβ; human, MDCK, 10 μM",21.9 ± 0.810 pmol/min/cm^2
same,Net accumulation,"human OSTαβ; human, MDCK, 10 μM",10.6 ± 0.810 pmol/min/cm^2
same,Accumulation in transporter cells,"human OSTαβ; human, MDCK, 100 μM",137 ± 12.8 pmol/min/cm^2
same,Net accumulation,"human OSTαβ; human, MDCK, 100 μM",88.1 ± 12.8 pmol/min/cm^2
same,Effect on elevated liver enzymes,[2]; NASH patients,reduces elevated liver enzymes
same,Safety profile,[2]; in vivo,clean safety profile
same,"Suppression of the central thyroid axis, THR-α effects on heart rate or bone",[2]; in vivo,neither suppression of the central thyroid axis nor THR-α effects on heart rate or bone
same,Inhibition of P-gp (in words),P-gp,not an inhibitor
same,Reducing hepatic fat compared to placebo,patients with NASH; after 12 weeks and 36 weeks of treatment,effective
same,Improving markers of liver injury and fibrosis compared to placebo,patients with NASH,effective
same,"Reducing atherogenic lipids and lipoproteins (LDL cholesterol, apolipoprotein B, triglycerides, lipoprotein(a), apolipoprotein CIII) compared to placebo",patients with NASH,effective
same,Inhibition of BCRP (in words),BCRP,moderate inhibitor
same,DDI R-value,"BCRP; Biliary/renal/BBB, [Ifree]/IC50 ≥ 0.02",0.004
same,DDI R-value,"BCRP; Intestine, [I2]/IC50 ≥ 10, predicted gut-wall BCRP interaction",33.5
same,Safety issues such as liver enzyme or creatine kinase (CK) elevations,[3],no safety issues were observed
"CC(C)c1nc(N(C)S(C)(=O)=O)nc(-c2ccc(F)cc2)c1/C=C/[C@@H](O)C[C@@H](O)CC(=O)O [rosuvastatin, (E)-7-[4-(4-fluorophenyl)-6-isopropyl-2-[methyl(methylsulfonyl)amino]pyrimidin-5-yl](3R,5S)-3,5-dihydroxyhept-6-enoic acid, reference compound]",AUC(0-inf),"clinical; 10 mg, mean",51.7 ng·h/mL
same,AUC(0-t),"clinical; 10 mg, mean",44.5 ng·h/mL
same,Tmax,"clinical; 10 mg, Tmax, mean",4.56 h
same,AUC(0-inf),clinical; geometric mean,46.6 ng·h/mL
same,AUC(0-t),clinical; geometric mean,38 ng·h/mL
same,Accumulation in control cells,"human OSTαβ; dog, MDCK, 1 μM",0.0557 ± 0.00359 pmol/min/cm^2
same,Accumulation in control cells,"human OSTαβ; dog, MDCK, 10 μM",0.297 ± 0.0377 pmol/min/cm^2
same,Accumulation in control cells,"human OSTαβ; human, MDCK, 0.1 μM",0.00664 ± 0.00215 pmol/min/cm^2
same,Accumulation in transporter cells,"human OSTαβ; human, MDCK, 0.1 μM",0.00894 ± 0.000845 pmol/min/cm^2
same,Net accumulation,"human OSTαβ; human, MDCK, 0.1 μM",0.0023 ± 0.000845 pmol/min/cm^2
same,Accumulation in transporter cells,"human OSTαβ; human, MDCK, 1 μM",0.0575 ± 0.00167 pmol/min/cm^2
same,Net accumulation,"human OSTαβ; human, MDCK, 1 μM",0.00176 ± 0.00167 pmol/min/cm^2
same,Accumulation in transporter cells,"human OSTαβ; human, MDCK, 10 μM",0.459 ± 0.0599 pmol/min/cm^2
same,Net accumulation,"human OSTαβ; human, MDCK, 10 μM",0.162 ± 0.0599 pmol/min/cm^2
same,"Cmax, geometric mean",[3],3.11 ng/mL
same,"% AUCexts, mean",[3]; 10 mg,10.6%
same,"Cmax, mean",[3]; 10 mg,3.62 ng/mL
same,"T1/2, mean",[3]; 10 mg,18.2 h
"C[C@H](CCC(=O)NCCS(=O)(=O)O)[C@H]1CC[C@H]2[C@@H]3[C@H](O)C[C@@H]4C[C@H](O)CC[C@]4(C)[C@H]3C[C@H](O)[C@]12C [taurocholic acid, reference compound]",Net accumulation,human OSTαβ; 1 μM substrate,0.0809 ± 0.0105 pmol/min/cm^2
same,Accumulation in transporter cells,"human OSTαβ; 1 μM substrate, OSTαβ MDCK-II cells",0.109 ± 0.0105 pmol/min/cm^2
